The test concerns Plasmodium berghei. The test can be described thus: Luciferase/luciferin-expressing antifolate-resistant parasites were used to infect a culture of HepG2 cells that were pre-incubated with compounds. Infected hepatocytes emit light due to the luciferase reaction. Assay results are presented as the percent inhibition of light emission compared to control. […]. In kind it is functional. As to conditions: sporozoite; for IC90: read-out: LUCIFERASE INFECTION ASSAY - IC90.

[1] abbreviates: read-out: LUCIFERASE INFECTION ASSAY - IC50.

On to `CCOc1ccc(Oc2ccc(S(=O)(=O)N(C)C3CCN(CC)CC3)cc2)cc1`, for which the IC90 was > 10 µM. Moreover, the 50% inhibitory concentration (IC50) under setting [1] is > 10 µM.

With `Cc1cccc(C(=O)Nc2nnc(SCc3ccc(C#N)cc3)s2)n1`, the IC90 was 6.71 µM. Also, the half-maximal inhibitory concentration (IC50) (FFLUC_HILL_SLOPE 1.7, FFLUC_R_SQUARED 0.312, PBLUC_HILL_SLOPE 60.1, PBLUC_R_SQUARED 0.803, read-out: LUCIFERASE INFECTION ASSAY - IC50) amounted to 6.47 µM.

`COc1ccc(C2=NN(c3ccccc3)C(c3cn(-c4ccccc4)nc3-c3cccnc3)C2)cc1` (configuration not stated): the IC90 was 9.32 µM. Also, the IC50 (PBLUC_HILL_SLOPE 3.03, PBLUC_R_SQUARED 0.661, read-out: LUCIFERASE INFECTION ASSAY - IC50) was determined as 4.51 µM.

On to `CC1CCc2c(sc3nc(CN4CCOCC4)nc(N4CCN(S(=O)(=O)/C=C/c5ccccc5)CC4)c23)C1` (configuration not stated), for which the concentration for an effect of 90% (IC90) was > 10 µM. In addition, the IC50 under setting [1] is > 10 µM.

With `COc1cc(-c2cc(-c3ccccc3)cnc2N)ccc1O`, the IC90 is 4.45 µM. Where the note is “PBLUC_HILL_SLOPE 13.8, PBLUC_R_SQUARED 0.558, read-out: LUCIFERASE INFECTION ASSAY - IC50”, the IC50 was 3.8 µM.

Turning to `Cc1oc(-n2cccc2)c(C#N)c1C(=O)Nc1nc(-c2ccccn2)cs1`, the IC90 was > 10 µM. In addition, under setting [1], the concentration for half-maximal inhibition (IC50) turned out to be 9.43 µM.

In the case of `C=S(=O)(NC(=O)c1ccc(-c2cc(C(F)(F)F)nn2C)s1)c1ccc(C)cc1` (configuration not stated), the IC90 was > 7.72 µM. The IC50 under setting [1] is > 7.72 µM.

On to `COc1cc2[nH]c(CSc3nnc(-c4ccccc4F)n3C3CC3)nc(=O)c2cc1OC`, for which the IC90 is > 10 µM. Besides, the IC50 (PBLUC_HILL_SLOPE 1.81, PBLUC_R_SQUARED 0.0649, read-out: LUCIFERASE INFECTION ASSAY - IC50) is > 10 µM.

Regarding `CN(CC(=O)Nc1c(Cl)cccc1Cl)C(=O)c1ccccc1-c1nc2ccccc2s1`, the IC90 came out at 6.97 µM. Also, the IC50 (FFLUC_HILL_SLOPE 17.7, FFLUC_R_SQUARED 0.2, PBLUC_HILL_SLOPE 167, PBLUC_R_SQUARED 0.153, read-out: LUCIFERASE INFECTION ASSAY - IC50) was 6.87 µM.

On to `COc1ccc(-c2cnc3cnc(-c4cnn(Cc5ccccc5)c4)cn23)cc1`, for which the IC90 is > 8.65 µM. For the same compound, the IC50 (PBLUC_HILL_SLOPE 2.08, PBLUC_R_SQUARED 0.432, read-out: LUCIFERASE INFECTION ASSAY - IC50) was 7.68 µM.

For `O=C1Nc2ccc([N+](=O)[O-])cc2/C1=N\NC(=O)c1cc2ccccc2cc1O`, the IC90 was > 10 µM. For the same compound, for the setting “PBLUC_HILL_SLOPE 1.88, PBLUC_R_SQUARED 0.548, read-out: LUCIFERASE INFECTION ASSAY - IC50”, the 50% inhibitory concentration (IC50) stood at 4.86 µM.

On to `COc1ccc(COC(=O)c2cc(C)nc3ccccc23)cc1F`, for which the IC90 came out at 0.157 µM. Also, under “HEPG2TOX_HILL_SLOPE 0.536, HEPG2TOX_R_SQUARED 0.687, PBLUC_HILL_SLOPE 9.99, PBLUC_R_SQUARED 0.341, read-out: LUCIFERASE INFECTION ASSAY - IC50”, the IC50 amounted to 0.126 µM.

As for `C=C(C)CC(NCc1ccco1)c1ccc(OC)cc1` (configuration not stated), the IC90 was > 12.2 µM. Besides, the IC50 under setting [1] stood at 8.94 µM.

For the compound `COC(=O)c1c(NC(=O)c2ccco2)c2cc(NC3CCN(C(C)C)CC3)cnc2n1CCC(C)C`, the IC90 was > 6.66 µM. Where the note is “PBLUC_HILL_SLOPE 4.28, PBLUC_R_SQUARED 0.61, read-out: LUCIFERASE INFECTION ASSAY - IC50”, the IC50 is 4.64 µM.

`Cc1sc(NC(=O)c2ccco2)c(C(c2cccc(C(F)(F)F)c2)N2CC(C)CC(C)C2)c1C` (configuration not stated): the IC90 was > 10 µM. The IC50 under setting [1] stood at 6.14 µM.

Regarding `O=C(CN1CCN(C(=O)c2ccc(=O)n(Cc3ccccc3)n2)CC1)NC1CC1`, the concentration for an effect of 90% (IC90) is > 10 µM. For the same compound, under setting [1], the half-inhibitory concentration (IC50) is > 10 µM.

`Cc1ccc(NC(=S)N/N=C2\C(=O)Nc3c(C)cc(C)cc32)c(C)c1`: the concentration for an effect of 90% (IC90) amounted to 3.68 µM. The IC50 under setting [1] is 3.03 µM.

Turning to `CNc1nc2cnc(Nc3ccc(OC)cc3C)cc2n1-c1cc(OC)c(OC)c(OC)c1`, the IC90 was > 10 µM. Besides, the half-maximal inhibitory concentration (IC50) under setting [1] was > 10 µM.

In the case of `COc1ccc(S(=O)(=O)N(Cc2ccc(C(=O)NC3CC3)cc2)C2CC2)cc1OC`, the IC90 is 7.7 µM. In addition, the IC50 (PBLUC_HILL_SLOPE 1.44, PBLUC_R_SQUARED 0.778, read-out: LUCIFERASE INFECTION ASSAY - IC50) is 1.68 µM.

In the case of `O=C(Oc1ccc(Cl)cc1Cc1ccccc1)c1ccccc1-c1ccc(C(F)(F)F)cc1`, the IC90 was > 10 µM. Further, under “PBLUC_HILL_SLOPE 2.87, PBLUC_R_SQUARED 0.0345, read-out: LUCIFERASE INFECTION ASSAY - IC50”, the IC50 is 8.61 µM.

As for `Cc1cccc(Oc2ccc(NC(=O)c3cccc(S(=O)(=O)N(C)C4CCCCC4)c3)cc2)c1`, the IC90 is 9.44 µM. In addition, where the note is “FFLUC_HILL_SLOPE 23.3, FFLUC_R_SQUARED 0.81, HEPG2TOX_HILL_SLOPE 1.26, HEPG2TOX_R_SQUARED 0.904, PBLUC_HILL_SLOPE 3.5, PBLUC_R_SQUARED 0.0916, read-out: LUCIFERASE INFECTION ASSAY - IC50”, the IC50 was 5.04 µM.

As for `Cc1ccsc1C(=O)OCC(=O)Nc1cc(C(C)(C)C)no1`, the IC90 was > 10 µM. Further, the IC50 under setting [1] was > 10 µM.

Consider `Clc1ccc(Nc2nccc3nc(-c4ccccc4)[nH]c23)cc1`, for which the IC90 was > 10 µM. Further, the IC50 (PBLUC_HILL_SLOPE 3.81, PBLUC_R_SQUARED 0.353, read-out: LUCIFERASE INFECTION ASSAY - IC50) was found to be 6.7 µM.

For `CC(=O)NCCc1ccc(C(=O)CSc2nccn2-c2ccc(Cl)cc2)s1`, the IC90 was > 10 µM. Under setting [1], the IC50 was > 10 µM.

`COc1cc(/C=C2\COC/C(=C\c3cc(OC)c(OC)c(OC)c3)C2=O)cc(OC)c1OC`: the IC90 was determined as 0.888 µM. For the same compound, the IC50 (HEPG2TOX_HILL_SLOPE 2.96, HEPG2TOX_R_SQUARED 0.98, PBLUC_HILL_SLOPE 14, PBLUC_R_SQUARED 0.753, read-out: LUCIFERASE INFECTION ASSAY - IC50) stood at 0.759 µM.

In the case of `COc1ccccc1-c1nc2ccc(NC(=O)Nc3ccc(OC(F)(F)F)cc3)cn2n1`, the IC90 is > 10 µM. Besides, under “PBLUC_HILL_SLOPE 3.5, PBLUC_R_SQUARED 0.389, read-out: LUCIFERASE INFECTION ASSAY - IC50”, the IC50 worked out at 7.37 µM.

A word on the IC50: it is the concentration at which inhibition is half-maximal. As usually defined, the IC90 is the concentration at which the effect reaches the 90% level.

(Values after ChEMBL document CHEMBL4483862, “Open-source discovery of chemical leads for next-generation chemoprotective antimalarials” (2018).)
